# Patent US4352802A, “Bicyclo[3.3.1]nonyl-benzamide” (Beecham Group Limited, priority 1980, dated 1982)
# Key:
# Format in all cases: in vivo
# Dopamine Receptor [1] = assay: Inhibition of apomorphine induced climbing in the mouse (dopamine receptor blocking activity in the central nervous system); conditions: p.o., apomorphine 1 mg/kg s.c., not necessarily the lowest active dose
# Protocol: II. Dopamine Receptor Blocking Activity in the Central Nervous System
# Compounds were tested for inhibition of apomorphine induced climbing in the mouse. The test is based on that described by Protais, P., Constantin, J. and Schwartz J. C. (1976), Psychopharmacology, 50, 1-6.
# Apomorphine 1 mg/kg s.c. induces mice to climb the wall of a wire cage (inverted food hopper-11×7.5×18 cm high). Mice acclimatised in their home cages in groups of 5 are placed under the hoppers immediately after the injection of apomorphine 1 mg/kg s.c. At 10,20 and 30 minutes after injection climbing behaviour is scored. The mice are observed for 30 seconds and scored according to the position they spend the majority of time in, score 0--four paws on floor of cage; score 1--[…]; score 2--all paws on wall of cage. The scores at all 3 times and for each mouse are summed and mice drug treated orally compared to mice receiving apomorphine only. A saline only treated group is also included and any score, generally <5% of maximum taken into account.
# [2] = system: vomiting response to apomorphine HCl; assay: Anti-emetic activity in the dog (apomorphine-induced vomiting); conditions: Canis lupus familiaris, sc, 30 minutes prior to apomorphine HCl 0.1 mg/kg s.c.
# Protocol: I. Anti-emetic activity in the dog
# Compounds were administered subcutaneously 30 minutes prior to administration of a standard dose of apomorphine HCl (0.1 mg/kg subcutaneously) and the vomiting response compared to that obtained when the same animals were dosed with apomorphine HCl and vehicle only.
# [3] = system: inhibitory effect of 6,7-ADTN on gastric motility; assay: Gastric motility testing in the rat (reversal of 6,7-ADTN inhibition); conditions: conscious chronic gastric fistula rat, 1 mg/kg s.c., 10 minutes after 6,7-ADTN 1 mg/kg s.c.
# Protocol: III. Gastric Motility Testing in the rat
# The compounds were tested for ability to reverse the inhibitory effect of 6,7-ADTN on gastric motility as recorded by an open tipped catheter in the conscious chronic gastric fistula rat. Administration of 1 mg/kg s.c. of 6,7-ADTN reduced basal gastric motor activity and this was reversed by the administration of the compound administered 10 minutes after the 6,7-ADTN. […] For subcutaneous testing the compound was dissolved in water by the addition of tartaric acid (1/2 mole per mole of compound).
# Dopamine Receptor [4] = assay: Inhibition of apomorphine induced climbing in the mouse (dopamine receptor blocking activity in the central nervous system); conditions: s.c., apomorphine 1 mg/kg s.c., not necessarily the lowest active dose
Structure (SMILES),Active Dose (inhibition of apomorphine induced climbing) (Dopamine Receptor [1]),also measured
"COc1cc(NC(C)=O)c(Cl)cc1C(=O)N[C@@H]1C[C@H]2COC[C@@H](C1)N2Cc1ccccc1 [Compound 1, 2-Methoxy-5-chloro-4-acetamido-N-[9-benzyl-9-aza-3-oxabicyclo(3,3,1)nonan-7β-yl]-benzamide]",2 mg/kg,
"COc1cc(N)c(Cl)cc1C(=O)N[C@@H]1C[C@H]2COC[C@@H](C1)N2Cc1ccccc1 [Compound 2, 2-Methoxy-5-chloro-4-amino-N-[9-benzyl-9-aza-3-oxabicyclo(3,3,1)nonan-7β-yl]-benzamide]",1 mg/kg,"ED50 [2]: 0.005 mg/kg; Reversal of the action of 6,7-ADTN on gastric motility [3]: reversed the action of 6,7-ADTN"
"COc1ccc(S(C)(=O)=O)cc1C(=O)N[C@@H]1C[C@H]2CSC[C@@H](C1)N2Cc1ccccc1 [Compound 5, 2-Methoxy-5-methylsulphonyl-N-[9-benzyl-9-aza-3-thiabicyclo (3,3,1)nonan-7β-yl]benzamide]",,"ED50 [2]: 0.1 mg/kg; Reversal of the action of 6,7-ADTN on gastric motility [3]: reversed the action of 6,7-ADTN; Active Dose (inhibition of apomorphine induced climbing) (Dopamine Receptor [4]): 50 mg/kg"
"COc1cccc(C(=O)N[C@@H]2C[C@H]3COC[C@@H](C2)N3Cc2ccccc2)c1OC [Compound 6, 2,3-Dimethoxyj-[N-(9-benzyl-9-aza-3-oxabicyclo(3,3,1)nonan-7β-yl)]benzamide]",2 mg/kg,
"COc1cc(N)c(Cl)cc1C(=O)N[C@@H]1C[C@H]2COC[C@@H](C1)N2Cc1ccc(Cl)cc1 [Compound 18, 2-Methoxy-5-chloro-4-amino-[N-(9-(4-chlorobenzyl)-9-aza-3-oxabicyclo(3,3,1)nonan-7β-yl)]benzamide]",10 mg/kg,
"COc1ccc(CN2[C@@H]3COC[C@H]2C[C@H](NC(=O)c2cc(Cl)c(N)cc2OC)C3)cc1 [Compound 19, 2-Methoxy-5-chloro-4-amino-[N-(9-(4-methoxybenzyl)9-aza-3-oxabicyclo(3,3,1)nonan-7β-yl)]benzamide]",10 mg/kg,
"COc1cc(N)c(Cl)cc1C(=O)N[C@@H]1C[C@H]2COC[C@@H](C1)N2Cc1ccc(Cl)c(Cl)c1 [Compound 20, 2-Methoxy-5-chloro-4-amino-[N-(9-(3,4-dichlorobenzyl)-9-aza-3-oxabicyclo(3,3,1)nonan-7β-yl)]benzamide]",10 mg/kg,
"COc1cc(N)c(Cl)cc1C(=O)N[C@@H]1C[C@H]2COC[C@@H](C1)N2Cc1cccc(C(F)(F)F)c1 [Compound 21, 2-Methoxy-5-chloro-4-amino-[N-(9-(3-trifluoromethylbenzyl)-9-aza-3-oxabicyclo(3,3,1)nonan-7β-yl)]benzamide]",50 mg/kg,
"COc1cc(N)c(Cl)cc1C(=O)N[C@@H]1C[C@H]2COC[C@@H](C1)N2Cc1ccc(C)cc1 [Compound 22, 2-Methoxy-5-chloro-4-amino-[N-(9-(4-methylbenzyl)-9-aza-3-oxabicyclo(3,3,1)nonan-7β-yl)]benzamide]",10 mg/kg,
"CCCCCCN1[C@@H]2COC[C@H]1C[C@H](NC(=O)c1cc(Cl)c(N)cc1OC)C2 [Compound 23, 2-Methoxy-5-chloro-4-amino[N-(9-(n-hexyl)-9-aza-3-oxabicyclo(3,3,1)nonan-7β-yl)]benzamide]",10 mg/kg,
"COc1cc(N)c(Cl)cc1C(=O)N[C@@H]1C[C@H]2COC[C@@H](C1)N2Cc1cccs1 [Compound 24, 2-Methoxy-5-chloro-4-amino-[N-(9-(2-thenyl)-9-aza-3-oxabicyclo(3,3,1)nonan-7β-yl)]benzamide]",10 mg/kg,
"COc1cc(N)c(Cl)cc1C(=O)N[C@@H]1C[C@H]2COC[C@@H](C1)N2CCC(C)C [Compound 25, 2-Methoxy-5-chloro-4-amino-[N-(9-(3-methylbutyl)-9-aza-3-oxabicyclo(3,3,1)nonan-7β-yl)]benzamide]",10 mg/kg,
COc1cc(N)c(Cl)cc1C(=O)N[C@@H]1C[C@H]2COC[C@@H](C1)N2CC1CCCCC1 [Compound 26],10 mg/kg,
